Here are results for five compounds from US11203571B2, “Sulfonamides as modulators of sodium channels” (VERTEX PHARMACEUTICALS INCORPORATED, priority 2013, dated 2021).

One data set has as its target human Nav1.8 (Homo sapiens (Human), UniProt Q9Y5Y9). The data set is described as follows: E-VIPR optical membrane potential assay with electrical stimulation. To be noted: HEK cells expressing human Nav1.8. Format: cell-based. In short, it runs like this: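 HEK cells expressing human Nav1.8 were loaded with CC2-DMPE (8 μM) and DiSBAC6(3) (2.5 μM), then given compound for 20-35 min at room temperature (0.625% DMSO). Cells received a 10-s current-controlled electrical stimulus. Response was the stimulated/baseline 460/580 nm emission ratio (Rf/Ri), with tetracaine (125 μM) as positive control.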

Data set [1] can be described thus: Human liver microsome assay. Format: in vitro ADME. The note with it: 1 uM substrate, 0.5 mg/mL liver microsome, 2 mM NADPH, 37° C., referenced against time zero control. In short, it runs like this: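 Pooled human liver microsomes (0.5 mg/mL) with 1 uM substrate (0.2% DMSO), 2 mM NADPH, 0.1 M phosphate, shaken 30 min at 37° C. Quenched with cold acetonitrile; parent quantified by LC/MS/MS. Value is % substrate remaining at 30 min versus a time-zero control without NADPH.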
Background: Microsomes from liver hold many membrane-bound enzymes, among them those of drug oxidation.

Chain of human Nav1.8 (Q9Y5Y9 whole entry): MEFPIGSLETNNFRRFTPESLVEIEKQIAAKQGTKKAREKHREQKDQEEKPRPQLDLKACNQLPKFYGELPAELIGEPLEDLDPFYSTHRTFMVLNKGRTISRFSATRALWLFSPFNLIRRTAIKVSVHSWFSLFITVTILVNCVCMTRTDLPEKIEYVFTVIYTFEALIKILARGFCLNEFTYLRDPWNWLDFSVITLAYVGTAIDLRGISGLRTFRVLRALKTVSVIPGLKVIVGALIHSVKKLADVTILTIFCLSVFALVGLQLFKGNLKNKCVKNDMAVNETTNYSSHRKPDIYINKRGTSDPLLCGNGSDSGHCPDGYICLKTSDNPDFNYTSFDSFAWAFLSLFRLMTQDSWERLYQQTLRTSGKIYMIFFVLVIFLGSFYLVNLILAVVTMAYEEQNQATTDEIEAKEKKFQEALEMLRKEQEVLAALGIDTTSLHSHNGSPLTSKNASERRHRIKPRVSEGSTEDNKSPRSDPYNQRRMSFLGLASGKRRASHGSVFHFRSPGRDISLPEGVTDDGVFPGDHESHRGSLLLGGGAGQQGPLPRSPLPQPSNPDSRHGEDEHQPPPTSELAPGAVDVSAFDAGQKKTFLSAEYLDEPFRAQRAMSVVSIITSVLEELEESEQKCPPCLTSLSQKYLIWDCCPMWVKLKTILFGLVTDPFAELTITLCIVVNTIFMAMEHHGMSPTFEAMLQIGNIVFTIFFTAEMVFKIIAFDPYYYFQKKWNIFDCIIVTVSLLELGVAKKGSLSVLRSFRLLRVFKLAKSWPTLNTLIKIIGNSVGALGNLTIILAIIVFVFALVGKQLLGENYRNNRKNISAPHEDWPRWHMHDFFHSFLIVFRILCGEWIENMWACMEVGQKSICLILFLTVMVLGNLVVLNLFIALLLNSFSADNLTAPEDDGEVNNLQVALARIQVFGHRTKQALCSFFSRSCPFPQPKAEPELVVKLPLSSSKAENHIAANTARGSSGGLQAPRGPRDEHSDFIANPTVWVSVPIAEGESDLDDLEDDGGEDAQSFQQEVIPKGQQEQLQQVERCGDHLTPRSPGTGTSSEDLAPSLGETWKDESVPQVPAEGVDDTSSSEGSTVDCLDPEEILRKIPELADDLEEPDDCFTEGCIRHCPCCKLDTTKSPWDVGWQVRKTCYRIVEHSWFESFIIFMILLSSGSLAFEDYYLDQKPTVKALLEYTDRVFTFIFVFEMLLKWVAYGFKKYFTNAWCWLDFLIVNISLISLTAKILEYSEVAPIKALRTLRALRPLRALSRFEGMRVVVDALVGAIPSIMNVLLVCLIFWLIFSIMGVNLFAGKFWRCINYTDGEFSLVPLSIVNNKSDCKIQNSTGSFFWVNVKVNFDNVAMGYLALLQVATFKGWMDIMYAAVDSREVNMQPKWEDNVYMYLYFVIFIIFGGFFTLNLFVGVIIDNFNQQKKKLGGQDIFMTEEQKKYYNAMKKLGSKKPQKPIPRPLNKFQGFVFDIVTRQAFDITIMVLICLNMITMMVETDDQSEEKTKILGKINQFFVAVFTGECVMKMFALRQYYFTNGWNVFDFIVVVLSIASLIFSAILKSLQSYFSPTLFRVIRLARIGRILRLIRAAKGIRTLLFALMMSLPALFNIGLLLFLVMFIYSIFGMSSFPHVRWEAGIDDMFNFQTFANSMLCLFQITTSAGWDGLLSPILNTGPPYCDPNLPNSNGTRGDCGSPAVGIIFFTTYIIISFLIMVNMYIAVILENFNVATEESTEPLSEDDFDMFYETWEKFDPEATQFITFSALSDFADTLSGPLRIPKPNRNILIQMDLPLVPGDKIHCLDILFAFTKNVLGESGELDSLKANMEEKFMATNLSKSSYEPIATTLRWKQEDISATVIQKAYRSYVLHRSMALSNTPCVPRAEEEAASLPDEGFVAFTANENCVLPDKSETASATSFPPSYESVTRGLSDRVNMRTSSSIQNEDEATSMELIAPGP

As usually defined, the IC50 is the concentration that inhibits the measured activity by half. In the case of `COc1cc(F)ccc1Oc1cc(Cl)cc(Cl)c1C(=O)Nc1cccc(S(N)(=O)=O)c1` [Compound 95, 2,4-dichloro-6-(4-fluoro-2-methoxyphenoxy)-N-(3-sulfamoylphenyl)benzamide], the half-inhibitory concentration (IC50) at human Nav1.8 stood at 0.9 nM. Moreover, in data set [1], the “HLM: percent unchanged after 30 min” value stood at 91%.
For `Cc1cc(F)ccc1Oc1cc(Cl)cc(Cl)c1C(=O)Nc1cccc(S(N)(=O)=O)c1` [Compound 96, 2,4-dichloro-6-(4-fluoro-2-methylphenoxy)-N-(3-sulfamoylphenyl)benzamide], in that order: 1 nM and 96%.
`NS(=O)(=O)c1cccc(NC(=O)c2c(Cl)cc(Cl)cc2Oc2ccc(OC(F)(F)F)cc2)c1` [Compound 97, 2,4-dichloro-N-(3-sulfamoylphenyl)-6-(4-(trifluoromethoxy)phenoxy)benzamide]: half-maximal inhibition against human Nav1.8 (IC50) required 4 nM. Moreover, the “HLM: percent unchanged after 30 min” value in data set [1] is given as 102%.
`COc1cc(Cl)ccc1Oc1cc(Cl)cc(Cl)c1C(=O)Nc1cccc(S(N)(=O)=O)c1` [Compound 98, 2,4-dichloro-6-(4-chloro-2-methoxyphenoxy)-N-(3-sulfamoylphenyl)benzamide] showed an IC50 against human Nav1.8 of 0.8 nM. The “HLM: percent unchanged after 30 min” value in data set [1] was found to be 62%.
At human Nav1.8, `COc1ccc(Oc2cc(Cl)cc(Cl)c2C(=O)Nc2cccc(S(N)(=O)=O)c2)c(F)c1` [Compound 99, 2,4-dichloro-6-(2-fluoro-4-methoxyphenoxy)-N-(3-sulfamoylphenyl)benzamide] showed an IC50 of 5 nM. The “HLM: percent unchanged after 30 min” value in data set [1] is reported as 63%.
